According to patent publication US8008303B2, “Biphenyl derivatives and their use in treating hepatitis C” (AstraZeneca AB, priority 2005, dated 2011):
Read-outs that look alike come from different tables or passages of the source.

Key:
[1] = tested on: HCV replicon cells Huh 9B; experiment: HCV replicon assay (luciferase readout); assay type: cell-based
Experimental: (§1) HCV replicon cells Huh 9B (ReBlikon), containing the firefly luciferase-ubiquitin-neomycin phosphotransferase fusion protein and EMCV-IRES driven HCV polyprotein with cell culture adaptive mutations.
Cells were cultured at 37° C. in a 5% CO2 environment and split twice a week on seeding at 2×10^6 cells/flask on day 1 and 1×10^6 3 days later. G418 at 0.5 mg/ml was added to the culture medium but not the assay medium.
The culture medium consisted of DMEM with […] glucose and glutamax (Gibco 61965-026) supplemented with 1× non-essential amino acids (Invitrogen 11140-035), penicillin (100 IU/ml)/streptomycin (100 μg/ml) (Invitrogen 15140-122), FCS (10%, 50 ml) and 1 mg/ml G418 (Invitrogen 10131-027) & 10% Australian foetal calf serum (Invitrogen 10099-141).
A flask of cells was trypsinised and a cell count carried out. Cells were diluted to 100,000 cells/ml and 100 μl of this used to seed one opaque white 96-well plate (for the replicon assay) and one flat-bottomed clear plate (for the tox assay) for every seven compounds to be tested for IC50. Wells G12 and H12 were left empty in the clear plate as the blank. Plates were then incubated at 37° C. in a 5% CO2 environment for 24 h.
(§2) On the following day compound dilutions are made up in medium at twice their desired final concentration in a clear round bottomed plate. All dilutions have a final DMSO concentration of 1%.
Once the dilution plate had been made up, controls and compounds were transferred to the assay plate (containing the cells) at 100 μl /well in duplicate plates. Exception: no compound was added to wells A1 and A2 of either plate and 100 μl of 1% DMSO was added to these instead. Plates were then incubated at 37° C. with 5% CO2 for 72 h.
At the end of the incubation time, the cells in the white plate were harvested by washing 23.5 mM beetle luciferin (Promega E1603), 26 mM ATP (Sigma 0-2060) in […] Tris buffer pH 7.8 aliquoted and stored at −80 C was thawed and diluted 1:50 in luciferase assay buffer (20 mM Tricine (Sigma T-0377), 1.07 mM magnesium carbonate hydroxide (Sigma M-5671), 0.1 mM EDTA (Sigma E-5134), 2.67 mM MgSO4 (BDH 101514Y), 33.3 mM dithiothreitol (Sigma 150460) pH 7.8).
The M injector of the microplate luminometer (Lmax, Molecular Devices) was primed with 5×300 μl injections of the diluted substrate. After 5-60 min incubation in lysis buffer at room temperature, a plate was inserted into the luminometer and 100 μl luciferase assay reagent was added by the injector on the luminometer. The signal was measured using a 1 second delay followed by a 4 second measurement programme.

[2] = tested on: HCV replicon cells Huh 9B; assay type: cell-based
Experimental: as §1
A flask of cells was trypsinised and a cell count carried out. […] Wells G12 and H12 were left empty in the clear plate as the blank. Plates were then incubated at 37° C. in a 5% CO2 environment for 24 h.
as §2
Exception: no compound was added to wells A1 and A2 of either plate and 100 μl of 1% DMSO was added to these instead. Plates were then incubated at 37° C. with 5% CO2 for 72 h.
The clear plate was stained with 100 μl 0.5% methylene blue in 50% ethanol at room temperature for 1 h, followed by solvation of the absorbed methylene blue in 100 μl per well of 1% lauroylsarcosine. Absorbance of the plate was measured on a microplate spectrophotometer (Molecular Devices) and the absorbance for each concentration of compound expressed as a proportion of the relative DMSO control.

[3] = concentration reducing replicon level (luciferase activity) by 50% vs untreated cell control, 72 h incubation
[4] = concentration reducing total cell area by 50% relative to DMSO controls, methylene blue, absorbance 620 nm, 72 h incubation
[5] = Hepatitis C virus, 72 h, concentration reducing replicon level (luciferase activity) by 50% vs untreated cell control, 72 h incubation

Row | Compound | IC50 [1] [µM] | IC50 [1, 3] [µM] | TD50 [2] | TD50 [2, 4] | IC50 [1, 5] [µM]
1 | 6-Methoxy-biphenyl-3,4′-dicarboxylic acid 4′-{[4-(1,1-dioxo-1lambda*6*-thiomorpholin-4-ylmethyl)-phenyl]-amide} 4′{[4-(4-methanesulfonyl-piperazin-1-ylmethyl)-phenyl]-amide} [Example 262] | < 1 | – | – | – | –
2 | 6-Methyl-biphenyl-3,4′-dicarboxylic acid 4′-[(1H-indol-6-yl)-amide] 3-[(4-morpholin-4-yl-phenyl)-amide] [Example 44] | – | < 1 | – | – | –
3 | Cc1ccc(C(=O)Nc2ccc(N3CCOCC3)cc2)cc1-c1ccc(C(=O)Nc2cccc(Br)c2)cc1 [Example 1, 6-Methyl-biphenyl-3,4′-dicarboxylic acid 4′-[(3-bromo-phenyl)-amide] 3-[(4-morpholin-4-yl-phenyl)-amide]] | 1 to 5 | – | ** (key: * < 50 μM; ** > 50 μM) | – | –
4 | COc1ccc(NC(=O)c2ccc(-c3cc(C(=O)Nc4ccc(N5CCOCC5)cc4)ccc3C)cc2)cn1 [Example 2, 6-Methyl-biphenyl-3,4′-dicarboxylic acid 4′-[(6-methoxy-pyridin-3-yl)-amide] 3-[(4-morpholin-4-yl-phenyl)-amide]] | 1 to 5 | – | ** (key: * < 50 μM; ** > 50 μM) | – | –
5 | Cc1cccc(CNC(=O)c2ccc(-c3cc(C(=O)Nc4ccc(N5CCOCC5)cc4)ccc3C)cc2)c1 [Example 3, 6-Methyl-biphenyl-3,4′-dicarboxylic acid 4′-(3-methyl-benzylamide) 3-[(4-morpholin-4-yl-phenyl)-amide]] | 1 to 5 | – | ** (key: * < 50 μM; ** > 50 μM) | – | –
6 | Cc1ccc(C(=O)Nc2ccc(N3CCOCC3)cc2)cc1-c1ccc(C(=O)NCCC(C)C)cc1 [Example 4, 6-Methyl-biphenyl-3,4′-dicarboxylic acid 4′-[(3-methyl-butyl)-amide] 3-[(4-morpholin-4-yl-phenyl)-amide]] | 1 to 5 | – | ** (key: * < 50 μM; ** > 50 μM) | – | –
7 | Cc1ccc(C(=O)Nc2ccc(N3CCOCC3)cc2)cc1-c1ccc(C(=O)NCc2cccc(F)c2)cc1 [Example 5, 6-Methyl-biphenyl-3,4′-dicarboxylic acid 4′-(3-fluoro-benzylamide) 3-[(4-morpholin-4-yl-phenyl)-amide]] | 1 to 5 | – | ** (key: * < 50 μM; ** > 50 μM) | – | –
8 | Cc1ccc(C(=O)Nc2ccc(N3CCOCC3)cc2)cc1-c1ccc(C(=O)NCCN2CCCCC2)cc1 [Example 6, 6-Methyl-biphenyl-3,4′-dicarboxylic acid 3-[(4-morpholin-4-yl-phenyl)-amide] 4′-[(2-piperidin-1-yl-ethyl)-amide]] | 1 to 5 | – | * (key: * < 50 μM; ** > 50 μM) | – | –
9 | Cc1ccc(C(=O)Nc2ccc(N3CCOCC3)cc2)cc1-c1ccc(C(=O)Nc2ccc(Br)cc2)cc1 [Example 7, 6-Methyl-biphenyl-3,4′-dicarboxylic acid 4′-[(4-bromo-phenyl)-amide] 3-[(4-morpholin-4-yl-phenyl)-amide]] | 1 to 5 | – | * (key: * < 50 μM; ** > 50 μM) | – | –
10 | Cc1ccc(C(=O)Nc2ccc(N3CCOCC3)cc2)cc1-c1ccc(C(=O)Nc2cccc(OCc3ccccc3)c2)cc1 [Example 8, 6-Methyl-biphenyl-3,4′-dicarboxylic acid 4′-[(3-benzyloxy-phenyl)-amide] 3-[(4-morpholin-4-yl-phenyl)-amide]] | 1 to 5 | – | ** (key: * < 50 μM; ** > 50 μM) | – | –
11 | Cc1ccc(C(=O)NCCCN2CCN(C)CC2)cc1-c1ccc(C(=O)Nc2ccc(N3CCOCC3)cc2)cc1 [Example 9, 6-Methyl-biphenyl-3,4′-dicarboxylic acid 3-{[3-(4-methyl-piperazin-1-yl)-propyl]-amide} 4′-[(4-morpholin-4-yl-phenyl)-amide]] | > 5 | – | * (key: * < 50 μM; ** > 50 μM) | – | –
12 | Cc1ccc(C(=O)Nc2ccc(N3CCOCC3)cc2)cc1-c1ccc(C(=O)NCc2cccc(C(F)(F)F)c2)cc1 [Example 10, 6-Methyl-biphenyl-3,4′-dicarboxylic acid 3-[(4-morpholin-4-yl-phenyl)-amide] 4′-(3-trifluoromethyl-benzylamide)] | 1 to 5 | – | * (key: * < 50 μM; ** > 50 μM) | – | –
13 | Cc1ccc(C(=O)Nc2ccc(N3CCOCC3)cc2)cc1-c1ccc(C(=O)NCCc2cccs2)cc1 [Example 11, 6-Methyl-biphenyl-3,4′-dicarboxylic acid 3-[(4-morpholin-4-yl-phenyl)-amide] 4′-[(2-thiophen-2-yl-ethyl)-amide]] | 1 to 5 | – | ** (key: * < 50 μM; ** > 50 μM) | – | –
14 | Cc1ccc(C(=O)Nc2ccc(N3CCOCC3)cc2)cc1-c1ccc(C(=O)Nc2ccc3cn[nH]c3c2)cc1 [Example 12, 6-Methyl-biphenyl-3,4′-dicarboxylic acid 4′-[(1H-indazol-6-yl)-amide] 3-[(4-morpholin-4-yl-phenyl)-amide]] | 1 to 5 | – | ** (key: * < 50 μM; ** > 50 μM) | – | –
15 | Cc1ccc(C(=O)Nc2ccc(N3CCOCC3)cc2)cc1-c1ccc(C(=O)NCCc2cnc[nH]2)cc1 [Example 13, 6-Methyl-biphenyl-3,4′-dicarboxylic acid 4′-{[2-(3H -imidazol-4-yl)-ethyl]-amide} 3-[(4-morpholin-4-yl-phenyl)-amide]] | > 5 | – | * (key: * < 50 μM; ** > 50 μM) | – | –
16 | Cc1ccc(CNC(=O)c2ccc(-c3cc(C(=O)Nc4ccc(N5CCOCC5)cc4)ccc3C)cc2)o1 [Example 14, 6-Methyl-biphenyl-3,4′-dicarboxylic acid 4′-[(5-methyl-furan-2-ylmethyl)-amide] 3-[(4-morpholin-4-yl-phenyl)-amide]] | 1 to 5 | – | ** (key: * < 50 μM; ** > 50 μM) | – | –
17 | Cc1ccc(C(=O)Nc2ccc(N3CCOCC3)cc2)cc1-c1ccc(C(=O)N2CCCC2)cc1 [Example 15, 6-Methyl-4′-(pyrrolidine-1-carbonyl)-biphenyl-3-carboxylic acid (4-morpholin-4-yl-phenyl)-amide] | – | – | – | * (* < 50 μM) | > 5
18 | Cc1ccc(C(=O)Nc2ccc(N3CCOCC3)cc2)cc1-c1ccc(C(=O)Nc2ccc3c(c2)OCO3)cc1 [Example 16, 6-Methyl-biphenyl-3,4′-dicarboxylic acid 4′-benzo[1,3]dioxol-5-ylamide 3-[(4-morpholin-4-yl-phenyl)-amide]] | 1 to 5 | – | ** (key: * < 50 μM; ** > 50 μM) | – | –
19 | Cc1ccc(C(=O)NC2CC2)cc1-c1ccc(C(=O)Nc2ccc(N3CCOCC3)cc2)cc1 [Example 17, 6-Methyl-biphenyl-3,4′-dicarboxylic acid 3-cyclopropylamide 4′-[(4-morpholin-4-yl-phenyl)-amide]] | 1 to 5 | – | * (key: * < 50 μM; ** > 50 μM) | – | –
20 | Cc1ccc(NC(=O)c2ccco2)cc1-c1ccc(C(=O)Nc2ccc(N3CCOCC3)cc2)cc1 [Example 18, Furan-2-carboxylic acid [6-methyl-4′-(4-morpholin-4-yl-phenylcarbamoyl)-biphenyl-3-yl]-amide] | – | – | – | * (* < 50 μM) | 1 to 5
21 | Cc1ccc(C(=O)Nc2ccc(N3CCOCC3)cc2)cc1-c1ccc(C(=O)Nc2cccc(C(=O)c3ccccc3)c2)cc1 [Example 19, 6-Methyl-biphenyl-3,4′-dicarboxylic acid 4′-[(3-benzoyl-phenyl)-amide] 3-[(4-morpholin-4-yl-phenyl)-amide]] | – | 1 to 5 | – | ** (** > 50 μM) | –
22 | Cc1ccc(CNc2ccc3cn[nH]c3c2)cc1-c1ccc(C(=O)Nc2ccc(CN3CCS(=O)(=O)CC3)cc2)cc1 [Example 201, 5′-[(1H-Indazol-6-ylamino)-methyl]-2′-methyl-biphenyl-4-carboxylic acid [4-(1,1-dioxo-1lambda*6*-thiomorpholin-4-ylmethyl)-phenyl]-amide] | – | – | – | * (* < 50 μM) | –
